Experiments:
CCRF-CEM = test: Growth inhibition of human CCRF-CEM cells incubated for 48 hrs by sulforhodamine B assay; format: functional
HL-60(TB) = test: Growth inhibition of human HL-60(TB) cells incubated for 48 hrs by sulforhodamine B assay; format: functional; conditions: HL-60, 48 h
K562 = test: Growth inhibition of human K562 cells incubated for 48 hrs by sulforhodamine B assay; format: functional; conditions: K562, 48 h
MOLT-4 = test: Growth inhibition of human MOLT4 cells incubated for 48 hrs by sulforhodamine B assay; format: functional; conditions: MOLT-4, 48 h
RPMI-8226 = test: Growth inhibition of human RPMI8226 cells incubated for 48 hrs by sulforhodamine B assay; format: functional; conditions: RPMI-8226, 48 h
SR = test: Growth inhibition of human SR cells incubated for 48 hrs by sulforhodamine B assay; format: functional
HOP-62 = test: Growth inhibition of human HOP62 cells incubated for 48 hrs by sulforhodamine B assay; format: functional; conditions: HOP-62, 48 h
NCI-H226 = test: Growth inhibition of human NCI-H226 cells incubated for 48 hrs by sulforhodamine B assay; format: functional; conditions: NCI-H226, 48 h
NCI-H460 = test: Growth inhibition of human NCI-H460 cells incubated for 48 hrs by sulforhodamine B assay; format: functional; conditions: NCI-H460, 48 h
NCI-H522 = test: Growth inhibition of human NCI-H522 cells incubated for 48 hrs by sulforhodamine B assay; format: functional; conditions: NCI-H522, 48 h
COLO 205 = test: Growth inhibition of human COLO205 cells incubated for 48 hrs by sulforhodamine B assay; format: functional; conditions: COLO 205, 48 h
HCC 2998 = test: Growth inhibition of human HCC2998 cells incubated for 48 hrs by sulforhodamine B assay; format: functional; conditions: HCC 2998, 48 h
HCT-116 = test: Growth inhibition of human HCT116 cells incubated for 48 hrs by sulforhodamine B assay; format: functional; conditions: HCT-116, 48 h
HT-29 = test: Growth inhibition of human HT-29 cells incubated for 48 hrs by sulforhodamine B assay; format: functional; conditions: HT-29, 48 h
KM12 = test: Growth inhibition of human KM12 cells incubated for 48 hrs by sulforhodamine B assay; format: functional; conditions: KM12, 48 h
SW-620 = test: Growth inhibition of human SW620 cells incubated for 48 hrs by sulforhodamine B assay; format: functional; conditions: SW-620, 48 h
SF-539 = test: Growth inhibition of human SF539 cells incubated for 48 hrs by sulforhodamine B assay; format: functional; conditions: SF-539, 48 h
SNB-19 = test: Growth inhibition of human SNB19 cells incubated for 48 hrs by sulforhodamine B assay; format: functional; conditions: SNB-19, 48 h
SNB-75 = test: Growth inhibition of human SNB75 cells incubated for 48 hrs by sulforhodamine B assay; format: functional; conditions: SNB-75, 48 h
U-251 = test: Growth inhibition of human U251 cells incubated for 48 hrs by sulforhodamine B assay; format: functional; conditions: U-251, 48 h
LOX IMVI = test: Growth inhibition of human LOXIMVI cells incubated for 48 hrs by sulforhodamine B assay; format: functional
Malme-3M = test: Growth inhibition of human MALME-3M cells incubated for 48 hrs by sulforhodamine B assay; format: functional
M14 = test: Growth inhibition of human M14 cells incubated for 48 hrs by sulforhodamine B assay; format: functional; conditions: M14, 48 h
MDA-MB-435 = test: Growth inhibition of human MDA-MB-435 cells incubated for 48 hrs by sulforhodamine B assay; format: functional; conditions: MDA-MB-435, 48 h
SK-MEL-28 = test: Growth inhibition of human SK-MEL-28 cells incubated for 48 hrs by sulforhodamine B assay; format: functional; conditions: SK-MEL-28, 48 h
SK-MEL-5 = test: Growth inhibition of human SK-MEL-5 cells incubated for 48 hrs by sulforhodamine B assay; format: functional; conditions: SK-MEL-5, 48 h
UACC-257 = test: Growth inhibition of human UACC257 cells incubated for 48 hrs by sulforhodamine B assay; format: functional; conditions: UACC-257, 48 h
UACC-62 = test: Growth inhibition of human UACC62 cells incubated for 48 hrs by sulforhodamine B assay; format: functional; conditions: UACC-62, 48 h
OVCAR-3 = test: Growth inhibition of human OVCAR3 cells incubated for 48 hrs by sulforhodamine B assay; format: functional; conditions: OVCAR-3, 48 h
OVCAR-4 = test: Growth inhibition of human OVCAR4 cells incubated for 48 hrs by sulforhodamine B assay; format: functional; conditions: OVCAR-4, 48 h
OVCAR-5 = test: Growth inhibition of human OVCAR5 cells incubated for 48 hrs by sulforhodamine B assay; format: functional; conditions: OVCAR-5, 48 h
NCI/ADR-RES = test: Growth inhibition of human NCI/ADR-RES cells incubated for 48 hrs by sulforhodamine B assay; format: functional
SK-OV-3 = test: Growth inhibition of human SKOV3 cells incubated for 48 hrs by sulforhodamine B assay; format: functional; conditions: SK-OV-3, 48 h
786-0 = test: Growth inhibition of human 786-O cells incubated for 48 hrs by sulforhodamine B assay; format: functional; conditions: 786-0, 48 h
ACHN = test: Growth inhibition of human ACHN cells incubated for 48 hrs by sulforhodamine B assay; format: functional
CAKI-1 = test: Growth inhibition of human Caki1 cells incubated for 48 hrs by sulforhodamine B assay; format: functional; conditions: CAKI-1, 48 h
RXF 393 = test: Growth inhibition of human RXF393 cells incubated for 48 hrs by sulforhodamine B assay; format: functional; conditions: RXF 393, 48 h
SN12C = test: Growth inhibition of human SN12C cells incubated for 48 hrs by sulforhodamine B assay; format: functional
TK-10 = test: Growth inhibition of human TK10 cells incubated for 48 hrs by sulforhodamine B assay; format: functional; conditions: TK-10, 48 h
PC-3 = test: Growth inhibition of human PC3 cells incubated for 48 hrs by sulforhodamine B assay; format: functional; conditions: PC-3, 48 h
DU-145 = test: Growth inhibition of human DU145 cells incubated for 48 hrs by sulforhodamine B assay; format: functional; conditions: DU-145, 48 h
Hs-578T = test: Growth inhibition of human Hs 578T cells incubated for 48 hrs by sulforhodamine B assay; format: functional
BT-549 = test: Growth inhibition of human BT549 cells incubated for 48 hrs by sulforhodamine B assay; format: functional; conditions: BT-549, 48 h
WISH = test: Cytotoxicity against human WISH cells assessed as reduction in cell viability after 24 hrs by MTT assay; format: cell-based
[1] = Antioxidant activity assessed as superoxide dismutase-like activity by measuring inhibition of superoxide radical anion production at 2 uM by NBT reduction assay relative to control; format: functional
Escherichia coli = test: Induction of Escherichia coli genomic DNA cleavage after 1 hr by agarose gel electrophoresis method
Homo sapiens = organism: Homo sapiens; test: Inhibition of PTK in human MCF7 cells at 1 uM preincubated for 2 hrs followed by poly-Glu-Tyr substrate addition by ELISA relative to control; format: cell-based
[2] = Growth inhibition of human NCI60 cells at 10 uM after 48 hrs by SRB assay relative to control; values are per cent of control; conditions: NCI60, 48 h

SMILES: N=C(N)c1ccc(-c2ccc(-c3ccc(Cl)cc3)s2)cc1F
- GI50 (CCRF-CEM): 194 nM
- GI50 (HL-60(TB)): 212 nM
- GI50 (K562): 272 nM
- GI50 (MOLT-4): 243 nM
- GI50 (RPMI-8226): 248 nM
- GI50 (SR): 218 nM
- GI50 (HOP-62): 1480 nM
- GI50 (NCI-H226): 2030 nM
- GI50 (NCI-H460): 207 nM
- GI50 (NCI-H522): 194 nM
- GI50 (COLO 205): 200 nM
- GI50 (HCC 2998): 156 nM
- GI50 (HCT-116): 171 nM
- GI50 (HT-29): 203 nM
- GI50 (KM12): 226 nM
- GI50 (SW-620): 186 nM
- GI50 (SF-539): 206 nM
- GI50 (SNB-19): 341 nM
- GI50 (SNB-75): 165 nM
- GI50 (U-251): 203 nM
- GI50 (LOX IMVI): 205 nM
- GI50 (Malme-3M): 490 nM
- GI50 (M14): 179 nM
- GI50 (MDA-MB-435): 163 nM
- GI50 (SK-MEL-28): 205 nM
- GI50 (SK-MEL-5): 1270 nM
- GI50 (UACC-257): 1620 nM
- GI50 (UACC-62): 218 nM
- GI50 (OVCAR-3): 268 nM
- GI50 (OVCAR-4): 224 nM
- GI50 (OVCAR-5): 248 nM
- GI50 (NCI/ADR-RES): 361 nM
- GI50 (SK-OV-3): 1140 nM
- GI50 (786-0): 192 nM
- GI50 (ACHN): 203 nM
- GI50 (CAKI-1): 173 nM
- GI50 (RXF 393): 187 nM
- GI50 (SN12C): 517 nM
- GI50 (TK-10): 1740 nM
- GI50 (PC-3): 394 nM
- GI50 (DU-145): 430 nM
- GI50 (Hs-578T): 726 nM
- GI50 (BT-549): 1500 nM
- IC50 (WISH): 64.2 µM
- inhibition [1]: 59%
- Activity (Escherichia coli): Dose-dependent effect
- inhibition (Homo sapiens): 88%
- growth percent at 10 µM [2]: -67.3%
